# Where no end group is shown, it is not given here.
# B1: rat ninjurin (other)
# chain: MDPGTEEYELNGDLRPGSPGSPDASPPRWGLRNRPINVNHYANKKSAAESMLDIALLMANASQLKAVVEQGNEFAFFVPLVVLISISLVLQIGVGVLLIFLVKYDLNNPAKHAKLDFLNNLATGLVFIIVVVNIFITAFGVQKPVMDVAPRQ
# notes: Full-length rat ninjurin (152 amino acids) expressed from pCMV-ninjurin in stably transfected Jurkat or CHO cells; In protein blots and immunoprecipitations it came from cell or tissue lysates; also called rat ninjurin 1; Nerve Injury Induced protein
# B2: ninjurin: Nerve Injury Induced protein, 152 amino acids, rat (SEQ ID NO:4), expressed on transfected cells (protein)
# chain: MDPGTEEYELNGDLRPGSPGSPDASPPRWGLRNRPINVNHYANKKSAAESMLDIALLMANASQLKAVVEQGNEFAFFVPLVVLISISLVLQIGVGVLLIFLVKYDLNNPAKHAKLDFLNNLATGLVFIIVVVNIFITAFGVQKPVMDVAPRQ
# modifications: Rat
# Tests used:
# [1] = system: ninjurin-expressing Jurkat cell transfectants; assay: Inhibition by synthetic peptides of ninjurin-mediated aggregation of ninjurin-expressing Jurkat cell transfectants; format: cell-based; details: for inhibition of ninjurin-mediated adhesion relative to wild type peptide 6: single amino acid substitutions in residues 26 to 37, dose-dependent test
# Protocol: (§1) Cell adhesion assays. […] Aggregation assays were performed using Jurkat cells (Shimizu et al., (1990) Nature 345, 250-253) stably transfected with pCMV-ninjurin or pCMVneo (nonrecombinant control). The cells were washed twice with RPMI 1640 containing 5 mM Hepes buffer, suspended to a concentration of 2×10^6 cells/ml in RPMI1640 with 10% FCS, and 100 μl of the cell suspension were added to each well of a flat-bottomed 96-well microtiter plate. The formation of aggregates was examined after 1 hr using phase contrast microscopy. […] The ninjurin positive cells were stained red with 1 mM CMTMR (5-(and-6)-(((4-chloromethyl)benzoyl)amino) tetramethylrhodamine) and control cells were stained green with 1 mM CMFTA (5-chloromethylfluoresceindiacetate) as described in the manufacturer's protocol (Molecular Probes). The cells were resuspended to 1×10^6 cells/ml, and 3 ml of the mixed cell suspension was allowed to form aggregates in 6-well culture plates. The composition of the aggregates was monitored by fluorescence microscopy.
# To directly investigate whether the N-terminal extracellular hydrophilic region is responsible for the observed homophilic adhesion, partially overlapping synthetic peptides whose sequences collectively encompass the entire predicted ninjurin extracellular domain were tested for their ability to inhibit the ninjurin-mediated adhesion. Aggregation assays with the ninjurin-expressing Jurkat cell transfectants were performed, and the degree of aggregation was examined after 60 minutes by measuring the number of cells incorporated in aggregates. Peptide 2 inhibited aggregation at a concentration of 0.1 mg/ml, and aggregation was completely abolished at concentrations above 1 mg/ml. In constrast, peptides 1 and 4 had no effect on aggregation at either of these concentrations.
# To further delimit the site of interaction, an additional 4 peptides (peptides 5 through 8) were tested for their ability to inhibit ninjurin-mediated aggregation (Data not shown). […] To identify the amino acids most critical for ninjurin-mediated adhesion, peptides (9-15) stretching from residue 26 to 37, each containing single amino acid mutations, were tested in the aggregation assay. The ability of each of these peptides to inhibit ninjurin-mediated adhesion in a dose-dependent manner was examined. The seven residues between prolines 27 and 35 (P27 and P35) were most important.
# Jurkat cells = assay: Aggregation assay with Jurkat cells stably transfected with pCMV-ninjurin; format: cell-based
# Protocol: as §1
# Ninjurin mutants fail to support aggregation. […] To investigate these possibilities, Jurkat cell lines expressing ninjurin molecules containing a double mutation (Arg28 to Asn and Asn29 to Ala) in the ninjurin adhesion motif was generated. […]
# DRG neurons = assay: DRG neuron/CHO cell co-culture neurite outgrowth; format: cell-based, rat; details: for inhibition of the neurite outgrowth promoting effect of ninjurin: peptides 0.5 mg/ml, E17 rat DRG neurons on CHO cells expressing ninjurin
# Protocol: Cell culture and transfection. Chinese hamster ovary (CHO) cells were cultured in F-12 medium supplemented with 10% fetal calf serum (FCS). T cell leukemia cells (Jurkat) were grown in RPMI 1640 with 10% FCS. The expression vector pCMV-ninjurin was constructed by inserting the ninjurin cDNA into the plasmid pCMVneo (Brewer, C. B. (1994). Methods in Cell Biol. 43, 233-245). The pCMVneo or pCMV-ninjurin plasmids was transfected into CHO cells via calcium phosphate precipitation and into Jurkat cells via electroporation. Stable transfectants were selected by growth in medium containing G418 (400 μg/ml) and individual clones were isolated by limiting dilution. […] Primary cultures of neurons from dorsal root ganglia (DRG) were prepared from E17 rat embryos as previously described (Eichler et al., (1989) Brain Res 482, 340-346). Dissociated neurons were plated on confluent monolayers of either control CHO cells or CHO cell expressing ninjurin in 24-well plates. Cultures were grown in a medium which consists of 90% Eagles minimal essential medium (Gibco), 10% FCS, 20 μg/ml each of fluoro-deoxyuridine and uridine, and 50 ng/ml mouse NGF (gift from E. Johnson, Washington U.). Six hr after plating, the cells were fixed with 4% paraformaldehyde in PBS, and immunohistochemistry using anti-neurofilament H antibodies was performed. Following previously established criteria (Gennarini et al., (1991) Neuron 6, 595-606), approximately 50 neurites were chosen for measurement which each emerged from a single distinguishable cell body, were longer than the diameter of the neuronal cell body, and were identifiable over their entire length. The length of each neurite was measured after tracing them from the photomicrographs onto grided (2 mm) transparency film. Statistical analysis was performed using Sigma Plot (version 3.0). […]
# Ninjurin-stimulated neurite outgrowth is mediated through the adhesion motif. […] The neuronal cultures were treated with peptides (0.5 mg/ml) corresponding to either the native or mutant sequences of the ninjurin adhesion motif, and neurite extension was monitored.
# [2] = target: the molecule itself; assay: aggregation assay, Jurkat cells stably transfected with pCMV-ninjurin against pCMVneo control
# Protocol: as §1, with “250–253)” for “250-253)”, “2 ×10^6” for “2×10^6”, “µl” for “μl”, “1 ×10^6” for “1×10^6”
# CHO cells = assay: Aggregation assay with ninjurin transfected CHO cells; format: cell-based, Chinese hamster; details: counted at 15 min intervals, 37° C.
# Protocol: For aggregation experiments using CHO cells, cells (ninjurin transfected and control) were harvested from confluent plates by treatment with trypsin, washed with F-12 medium, and resuspended at 1×10^6 cells/ml in F-12 with 10% FCS. Aggregation assays were performed on a rotary shaker at 80 rpm. Quantitation of aggregate formation was monitored at 15 min intervals by counting the number of particles using a hemocytometer (Takeichi, M. (1977). J. Cell. Biol. 75, 464-474). The extent of the aggregate formation is inversely proportional to the number of particles, and was determined by calculating an index Nt/No, where Nt and No were the total particle numbers at incubation times t and 0, respectively (Takeichi, 1977). All of the aggregation experiments were performed at 37° C.
# [3] = ninjurin-expressing Jurkat transfectants, aggregation examined after 60 minutes
molecule,measurement,setting,value
9: residues 26 to 37 with substitution of Arg28 to Asn28 (SEQ ID NO:14) (PPNWGLRNRPIN; Rat) [Peptide 9],inhibition of ninjurin-mediated adhesion relative to wild type peptide 6,[1],less active
10: residues 26 to 37 with substitution of Trp29 for Ala29 (SEQ ID NO:15) (PPRAGLRNRPIN; Rat) [Peptide 10],inhibition of ninjurin-mediated adhesion relative to wild type peptide 6,[1],less active
11: residues 26 to 37 with substitution of Gly29 to Ala29 (SEQ ID NO:16) (PPRWALRNRPIN; Rat) [Peptide 11],inhibition of ninjurin-mediated adhesion relative to wild type peptide 6,[1],did not exhibit altered inhibition
12: residues 26 to 37 with substitution of Leu31 to Asn31 (SEQ ID NO:17) (PPRWGNRNRPIN; Rat) [Peptide 12],inhibition of ninjurin-mediated adhesion relative to wild type peptide 6,[1],did not exhibit altered inhibition
13: residues 26 to 37 with substitution of Arg32 for Asn32 (SEQ ID NO:18) (PPRWGLNNRPIN; Rat) [Peptide 13],inhibition of ninjurin-mediated adhesion relative to wild type peptide 6,[1],less active
15: residues 26 to 37 with substitution of Arg34 for Asn34 (SEQ ID NO:20) (PPRWGLRNNPIN; Rat) [Peptide 15],inhibition of ninjurin-mediated adhesion relative to wild type peptide 6,[1],less active
"O=C(O)CN(CCN(CC(=O)O)CC(=O)O)CC(=O)O [EDTA, reference compound]",aggregate formation in the presence of EDTA,"Jurkat cells; ninjurin-expressing Jurkat cells, 1 mM EDTA",no aggregates were detected
PPRWGLRNRPIN [Peptide 6],inhibitory activity on ninjurin-mediated aggregation compared with other peptides,[1],comparable to peptides 2 or 3
same,concentration at which aggregation was completely abolished,[1]; [3],above 2 mg/ml
same,concentration at which aggregation was inhibited,[1]; [3],higher than 0.4 mg/ml
same,inhibition of the neurite outgrowth promoting effect of ninjurin,DRG neurons,inhibited
Peptide 14: residues 26 to 37 with substitution of Asn33 for Leu33 (SEQ ID NO:19) (PPRWGLRLRPIN; Rat),inhibition of ninjurin-mediated adhesion relative to wild type peptide 6,[1],more effective
same,inhibition of ninjurin-mediated adhesion relative to wild type peptide 6,[1]; listed as Asn-33 to Leu33,greater inhibitory activity than wild type
peptide containing a mutation in this sequence: peptide with a mutant sequence of the ninjurin adhesion motif; which mutation is not stated (PPRWGLRNRPIN; Rat),inhibition of the neurite outgrowth promoting effect of ninjurin,DRG neurons,no significant inhibitory effect
B1,binding result,[2],binds
B2,average neurite length,"DRG neurons; neurons grown for 6 hr on CHO cells expressing ninjurin, approximately 50 neurons",569±134 μm
same,number of particles (aggregate formation),CHO cells,decrease in the number of particles with time
same,aggregate formation,"Jurkat cells; transfected Jurkat cells, after 1 hr",formation of large aggregates

# — US6559288B1, “Ninjurin” (Washington University, priority 1996, dated 2003)
